Experimental data reported in US9675598B2, “Compositions of tolperisone” (SANOCHEMIA PHARMAZEUTIKA AG, priority 2007, dated 2017).

How the values were obtained:
[1] = 4-MMPPO content after standard single recrystallization of tolperisone (Example 2); format: physicochemical
Description: All samples used in the analytical sequence were prepared for analysis as follows. Sample were homogenized if necessary (e.g., tablets) and weighed. For each tolperisone sample, approximately 20 mg of sample was added into a 20 mL flask. 20 mL of 50 mM HCl in MeOH was added to the flask, which was then placed in an ultrasonic bath for about 5 minutes. The contents of the flask were mixed on a vortexer for about 20 seconds. In instances in which the tolperisone sample had initially been in tablet form, the solution was then centrifuged at 4000 rpm for 2 minutes. 200 μL of the sample was then transferred into a small conical centrifuge vial. 20 μL of an internal standard solution containing deuterated 4-MMPPO, 200 μL of buffer at pH 1, and 0.4 mL of diisopropyl ether (DIPE) were added to the vial. The sample was then extracted by vortexing with a DVX-2500 multi-tube vortexer (2100 rpm) for about 2 minutes (cycle: 5 seconds run, 1 second pause time) and centrifugation (phase separation) at 4000 rpm for 2 minutes. 150 μL of 50 mM HCl in MeOH/DMSO (½) was added into empty designated conical autosampler vials. After centrifugation, 100 μL of supernatant was transferred into these conical autosampler vials. The vials were crimped and vortexed with a DVX-2500 multi-tube vortexer (2100 rpm) for about 1 minute. […]

[2] = 4-MMPPO content after recrystallization using acidified solvent system (Example 5); format: physicochemical; conditions: 1% (v/v) concentrated aqueous HCl added to the recrystallization mixture
Description: Crude tolperisone was dissolved in an 85:15 (v/v) mixture of 2-butanone (MEK) and isopropanol, accompanied by addition of 1% HCl under reflux for 12 hours. The temperature was decreased to 80° C. and the solution filtered while hot. The solution was cooled to 5° C. and stirred for 7 h at 5° C.
The crystalline precipitate was separated by filtering, washed with isopropanol, and subsequently dried in vacuo at 45 to 85° C., with lower drying temperatures being preferred.
When 1% (v/v) concentrated aqueous HCl was added to the recrystallization mixture, 4-MMPPO levels dropped below 6.6 ppm in the final recrystallized tolperisone product.

- 4-MMPPO content of recrystallized product ([1]; ppm as printed): 1400 ppm
- 4-MMPPO content, subsequent production batches ([1]; subsequent production batches): < 0.05%
- 4-MMPPO levels in the final recrystallized tolperisone product [2]: below 6.6 ppm
SMILES: Cc1ccc(C(=O)C(C)CN2CCCCC2)cc1 (stereo not drawn) [tolperisone, 2-methyl-1-(4-methylphenyl)-3-(piperidinyl)-1-propanone]
